Some test systems named below: HCT-15; HCC 2998; UACC-62; Hs-578T; SW-620; SN12C; T47D; CCRF-CEM; MDA-MB-231; SNB-19; COLO 205; KM12; M14; DU-145; OVCAR-3; EKVX; CAKI-1; A498; LOX IMVI.
What all share (assay): NCI anticancer screen, dose series, 48 h

SMILES strings stand for the structures.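 These data come from cells grown in 96-well plates and exposed to compound for 48 hours at five concentrations. At the GI50, growth is halved.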 Active and inactive are the calls of the source. Rule as the data show it: active = GI50 up to about 1.1 µM and inactive = higher. Some results are limits rather than exact numbers.

Consider `O=C(C/N=C(\CN(c1ccccc1)c1ccccc1)Oc1c([N+](=O)[O-])cc([N+](=O)[O-])cc1[N+](=O)[O-])N1CCNCC1`, for which the GI50 was greater than 100000 nM in the experiment with HCT-15; > 100 µM (inactive) in the experiment with HCC 2998; 43 µM (inactive) with UACC-62; 25.4 µM (inactive) in the experiment on Hs-578T; > 100 µM (inactive) with SW-620; > 100 µM (inactive) with SN12C. In addition, the GI50 with T47D, in the experiment with CCRF-CEM, in the experiment with MDA-MB-231, in the experiment on SNB-19, in the experiment on COLO 205 and in the experiment with KM12 was > 100 µM (inactive) each time. Besides, the GI50 with M14, with DU-145, in the experiment with OVCAR-3 and in the experiment with EKVX was > 100 µM (inactive) in each case.
As for `CC1=C(C(=O)Nc2ccccc2)C(c2ccc(C3C(C(=O)Nc4ccccc4)=C(C)NC(C)=C3C(=O)Nc3ccccc3)cc2)C(C(=O)Nc2ccccc2)=C(C)N1`, the GI50 is 2720 nM in the experiment with HCT-15; 2.47 µM (inactive) with HCC 2998; 1.67 µM (inactive) in the experiment with UACC-62; 2.88 µM (inactive) in the experiment with Hs-578T; 2.11 µM (inactive) in the experiment on SW-620; 2.04 µM (inactive) in the experiment with SN12C. Further, the GI50 in the experiment with T47D is 2.7 µM (inactive); with CCRF-CEM it was 1.58 µM (inactive); in the experiment on MDA-MB-231 it was 2.8 µM (inactive); with SNB-19, 6.31 µM (inactive); in the experiment on CAKI-1 it was 4.02 µM (inactive); in the experiment with A498 it was 8.99 µM (inactive). In addition, the GI50 was 3.21 µM (inactive) with COLO 205; 2.09 µM (inactive) in the experiment on KM12; 2.5 µM (inactive) with M14; > 10 µM (inactive) in the experiment with DU-145; 4.38 µM (inactive) in the experiment with OVCAR-3; 1.61 µM (inactive) in the experiment on LOX IMVI. Also, in the experiment with EKVX, the GI50 is 4.72 µM (inactive).
As for `C=C1C(=O)OC2/C=C(\COC(C)=O)CCC(OC(C)=O)C3=CC(OC3=O)C12` (stereo not given), the GI50 with HCT-15 is 2940 nM; with HCC 2998, 14.4 µM (inactive); in the experiment with UACC-62, 4.26 µM (inactive); with Hs-578T it was 24.2 µM (inactive); with SW-620 it was 1.77 µM (inactive); in the experiment on SN12C, 8.87 µM (inactive). Further, the GI50 in the experiment on T47D is 16.9 µM (inactive); in the experiment on CCRF-CEM, 1.01 µM (active); in the experiment on MDA-MB-231, 19.1 µM (inactive); in the experiment on SNB-19, 18 µM (inactive); in the experiment on CAKI-1, 3.03 µM (inactive); in the experiment with A498, 16 µM (inactive). Further, the GI50 in the experiment with COLO 205 was 2.14 µM (inactive); with KM12 it was 12.7 µM (inactive); in the experiment on M14, 2.91 µM (inactive); in the experiment on DU-145, 36.1 µM (inactive); with OVCAR-3 it was 4.15 µM (inactive); with LOX IMVI, 5.45 µM (inactive). Moreover, the GI50 in the experiment on EKVX was 11.7 µM (inactive).
Regarding `O=c1cc(-c2ccccc2)nc(-n2[nH]c3c(c2=O)CCCC3)[nH]1`, the GI50 was 1700 nM with HCT-15; 2.32 µM (inactive) in the experiment on UACC-62; 23.4 µM (inactive) with Hs-578T; 4.24 µM (inactive) in the experiment with SW-620; 10.8 µM (inactive) in the experiment on SN12C; 1.56 µM (inactive) in the experiment with T47D. Besides, the GI50 is 0.769 µM (active) with CCRF-CEM; 2.92 µM (inactive) with MDA-MB-231; 11 µM (inactive) in the experiment with SNB-19; 7.18 µM (inactive) in the experiment on CAKI-1; 17.6 µM (inactive) in the experiment with A498; 3.82 µM (inactive) in the experiment with COLO 205. The GI50 was 13.3 µM (inactive) in the experiment with KM12, 5.68 µM (inactive) in the experiment on M14, 1.57 µM (inactive) in the experiment with DU-145 and 4.94 µM (inactive) in the experiment on EKVX.

The values above are taken from ChEMBL document CHEMBL1201862, “PubChem BioAssay data set” (2004).
